Measured values: US4416884A, “Piperazinylbenzoheterocyclic compounds” (Otsuka Pharmaceutical Co., Ltd., priority 1978, dated 1983)
In brackets after ≈: the same amount, converted by molar mass. Read-outs that look alike come from different tables or passages of the source.

How the values were obtained:
Format in all cases: cell-based
[1] = tested on: Corinebacterium diphteriae; test: antimicrobial activity, serial dilution method on agar plate
In short: (§1)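 Reported figure is the lowest compound level (mcg/ml) inhibiting growth on Heart Infusion agar in a serial plate dilution. Suspensions of 1×10^8 and 1×10^6 cells/ml served as inocula.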

[2] = tested on: Enterobacter aerogenes IFO 12979; test: as above; conditions: Klebsiella aerogenes
In short: as §1

[3] = tested on: Pseudomonas aeruginosa ATCC 10145; test: as above
In short: as §1

[4] = tested on: Pseudomonas aeruginosa NCTC 10490; test: as above
In short: as §1

[5] = tested on: Staphylococcus aureus FDA 209 P; test: as above
In short: as §1

[6] = tested on: Streptococcus pneumoniae Type II; test: as above
In short: as §1

[7] = tested on: Yersinia enterocolitica 0-5; test: as above
[8] = tested on: Aeromonas hydrophila IFO 12658; test: antimicrobial activity on bacteria which cause infectious diseases in fish
Description: (§2) The antimicrobial activity of the following test compounds on various test organisms listed below was determined by the serial dilution method on agar plate (Heart Infusion agar produced by Difco Co.) (see CHEMOTHERAPY 22, pp. 1126-1128 (1974)), and the minimum inhibitory concentrations (mcg/ml) obtained are shown in Table 1 below.
(§3) A sample of each test organism was prepared so that the population of the organism was 1×10^8 cells/ml (O.D. 660 mμ=0.07 to 0.16) and 1×10^6 cells/ml (which was obtained by diluting the above 1×10^8 cells/ml preparation).
(§4) In the same manner as above, the antimicrobial activity of the following compounds on various test organisms which cause infectious diseases in fish was determined.

[9] = tested on: Aeromonas hydrophila IFO 12981; test: as above
Description: as §2, §3, §4

[10] = tested on: Aeromonas salmonicida IFO 12659; test: as above
Description: as §2, §3, §4

[11] = tested on: Aeromonas salmonicida IFO 12718; test: as above
Description: as §2, §3, §4

[12] = tested on: Pseudomonas fluorescens IFO 12180; test: as above; conditions: IFO12180, read-out: Minimum Inhibitory Concentration
Description: as §2, §3, §4

[13] = tested on: Pseudomonas fluorescens IFO 12568; test: as above
Description: as §2, §3, §4

[14] = tested on: Vibrio anguillarum IFO 12710; test: as above
Description: as §2, §3, §4

[15] = tested on: Vibrio anguillarum IFO 13266; test: as above
Description: as §2, §3, §4

[16] = tested on: Test Organism 1 (Escherichia Coli NIHJ); test: influence of the addition of horse serum on the MIC
[17] = tested on: Test Organism 2 (Escherichia Coli NIHJ JC-2 (IFO 12734)); test: as above
[18] = tested on: Test Organism 17 (Pseudomonas putida IFO 13696); test: as above
[19] = tested on: Test Organism 16 (Pseudomonas maltophilia IFO 12692); test: as above; conditions: Stenotrophomonas maltophilia
[20] = tested on: Test Organism 21 (Bacillus subtilis PCI 219); test: as above
[21] = tested on: Test Organism 27 (Streptococcus pneumoniae Type III); test: as above
[22] = read-out: Minimum Inhibitory Concentration, inoculum 1 × 10^6 cells/ml
[23] = read-out: Minimum Inhibitory Concentration, inoculum 1 × 10^8 cells/ml
[24] = read-out: Minimum Inhibitory Concentration, horse serum 0%, inoculum 10^6
[25] = read-out: Minimum Inhibitory Concentration, horse serum 0%, inoculum 10^8
[26] = read-out: Minimum Inhibitory Concentration, horse serum 10%, inoculum 10^6
[27] = read-out: Minimum Inhibitory Concentration, horse serum 10%, inoculum 10^8
[28] = read-out: Minimum Inhibitory Concentration, horse serum 20%, inoculum 10^6
[29] = read-out: Minimum Inhibitory Concentration, horse serum 20%, inoculum 10^8
[30] = read-out: Minimum Inhibitory Concentration, horse serum 40%, inoculum 10^6
[31] = read-out: Minimum Inhibitory Concentration, horse serum 40%, inoculum 10^8

CC1CCc2c(N3CCNCC3)ccc3c(=O)c(C(=O)O)cn1c23 (centres unmarked) [A]
MIC [1, 22]: 1.6 µg/mL (≈ 4.89 µM)
MIC [1, 23]: 1.6 µg/mL (≈ 4.89 µM)
MIC ([2]; IFO12979, read-out: Minimum Inhibitory Concentration, inoculum 1 × 10^6 cells/ml): 0.8 µg/mL (≈ 2.44 µM)
MIC ([2]; IFO12979, read-out: Minimum Inhibitory Concentration, inoculum 1 × 10^8 cells/ml): 0.8 µg/mL (≈ 2.44 µM)
MIC ([3]; ATCC10145, read-out: Minimum Inhibitory Concentration, inoculum 1 × 10^6 cells/ml): 6.3 µg/mL (≈ 19.2 µM)
MIC ([3]; ATCC10145, read-out: Minimum Inhibitory Concentration, inoculum 1 × 10^8 cells/ml): 6.3 µg/mL (≈ 19.2 µM)
MIC ([4]; NCTC10490, read-out: Minimum Inhibitory Concentration, inoculum 1 × 10^6 cells/ml): 3.1 µg/mL (≈ 9.47 µM)
MIC ([4]; NCTC10490, read-out: Minimum Inhibitory Concentration, inoculum 1 × 10^8 cells/ml): 6.3 µg/mL (≈ 19.2 µM)
MIC ([5]; FDA209, read-out: Minimum Inhibitory Concentration, inoculum 1 × 10^6 cells/ml): 3.1 µg/mL (≈ 9.47 µM)
MIC ([5]; FDA209, read-out: Minimum Inhibitory Concentration, inoculum 1 × 10^8 cells/ml): 6.3 µg/mL (≈ 19.2 µM)
MIC [6, 22]: 6.3 µg/mL (≈ 19.2 µM)
MIC [6, 23]: 25 µg/mL (≈ 76.4 µM)
MIC ([7]; Yersinia enterocolitica, 05, read-out: Minimum Inhibitory Concentration, inoculum 1 × 10^6 cells/ml): 0.8 µg/mL (≈ 2.44 µM)
MIC ([7]; Yersinia enterocolitica, 05, read-out: Minimum Inhibitory Concentration, inoculum 1 × 10^8 cells/ml): 0.8 µg/mL (≈ 2.44 µM)
MIC ([8]; IFO12658, inoculum 10^6, read-out: Minimum Inhibitory Concentration): 0.1 µg/mL (≈ 0.305 µM)
MIC ([8]; IFO12658, inoculum 10^8, read-out: Minimum Inhibitory Concentration): 0.2 µg/mL (≈ 0.611 µM)
MIC ([9]; IFO12981, inoculum 10^6, read-out: Minimum Inhibitory Concentration): 0.2 µg/mL (≈ 0.611 µM)
MIC ([9]; IFO12981, inoculum 10^8, read-out: Minimum Inhibitory Concentration): 0.2 µg/mL (≈ 0.611 µM)
MIC ([10]; IFO12659, inoculum 10^6, read-out: Minimum Inhibitory Concentration): 0.2 µg/mL (≈ 0.611 µM)
MIC ([10]; IFO12659, inoculum 10^8, read-out: Minimum Inhibitory Concentration): 0.4 µg/mL (≈ 1.22 µM)
MIC ([11]; IFO12718, inoculum 10^6, read-out: Minimum Inhibitory Concentration): 0.2 µg/mL (≈ 0.611 µM)
MIC ([11]; IFO12718, inoculum 10^8, read-out: Minimum Inhibitory Concentration): 0.4 µg/mL (≈ 1.22 µM)
MIC [12]: 3.1 µg/mL (≈ 9.47 µM)
MIC ([13]; IFO12568, read-out: Minimum Inhibitory Concentration, inoculum 10^6): 12.5 µg/mL (≈ 38.2 µM)
MIC ([13]; IFO12568, read-out: Minimum Inhibitory Concentration, inoculum 10^8): 25 µg/mL (≈ 76.4 µM)
MIC ([14]; IFO12710, read-out: Minimum Inhibitory Concentration, inoculum 10^6): 3.1 µg/mL (≈ 9.47 µM)
MIC ([14]; IFO12710, read-out: Minimum Inhibitory Concentration, inoculum 10^8): 3.1 µg/mL (≈ 9.47 µM)
MIC ([15]; IFO13266, read-out: Minimum Inhibitory Concentration, inoculum 10^6): 0.1 µg/mL (≈ 0.305 µM)
MIC ([15]; IFO13266, read-out: Minimum Inhibitory Concentration, inoculum 10^8): 0.2 µg/mL (≈ 0.611 µM)
MIC [16, 24]: 6.3 µg/mL (≈ 19.2 µM)
MIC [16, 25]: 6.3 µg/mL (≈ 19.2 µM)
MIC [16, 26]: 3.1 µg/mL (≈ 9.47 µM)
MIC [16, 27]: 6.3 µg/mL (≈ 19.2 µM)
MIC [16, 28]: 3.1 µg/mL (≈ 9.47 µM)
MIC [16, 29]: 3.1 µg/mL (≈ 9.47 µM)
MIC [16, 30]: 3.1 µg/mL (≈ 9.47 µM)
MIC [16, 31]: 3.1 µg/mL (≈ 9.47 µM)
MIC [17, 24]: 1.6 µg/mL (≈ 4.89 µM)
MIC [17, 25]: 1.6 µg/mL (≈ 4.89 µM)
MIC [17, 26]: 0.8 µg/mL (≈ 2.44 µM)
MIC [17, 27]: 0.8 µg/mL (≈ 2.44 µM)
MIC [17, 28]: 0.8 µg/mL (≈ 2.44 µM)
MIC [17, 29]: 0.8 µg/mL (≈ 2.44 µM)
MIC [17, 30]: 0.4 µg/mL (≈ 1.22 µM)
MIC [17, 31]: 0.4 µg/mL (≈ 1.22 µM)
MIC ([18]; IFO13696, read-out: Minimum Inhibitory Concentration, horse serum 0%, inoculum 10^6): 0.2 µg/mL (≈ 0.611 µM)
MIC ([18]; IFO13696, read-out: Minimum Inhibitory Concentration, horse serum 0%, inoculum 10^8): 0.4 µg/mL (≈ 1.22 µM)
MIC ([18]; IFO13696, read-out: Minimum Inhibitory Concentration, horse serum 10%, inoculum 10^6): 0.2 µg/mL (≈ 0.611 µM)
MIC ([18]; IFO13696, read-out: Minimum Inhibitory Concentration, horse serum 10%, inoculum 10^8): 0.2 µg/mL (≈ 0.611 µM)
MIC ([18]; IFO13696, read-out: Minimum Inhibitory Concentration, horse serum 20%, inoculum 10^6): 0.2 µg/mL (≈ 0.611 µM)
MIC ([18]; IFO13696, read-out: Minimum Inhibitory Concentration, horse serum 20%, inoculum 10^8): 0.2 µg/mL (≈ 0.611 µM)
MIC ([18]; IFO13696, read-out: Minimum Inhibitory Concentration, horse serum 40%, inoculum 10^6): 0.2 µg/mL (≈ 0.611 µM)
MIC ([18]; IFO13696, read-out: Minimum Inhibitory Concentration, horse serum 40%, inoculum 10^8): 0.2 µg/mL (≈ 0.611 µM)
MIC ([19]; IFO12692, read-out: Minimum Inhibitory Concentration, horse serum 0%, inoculum 10^6): 1.6 µg/mL (≈ 4.89 µM)
MIC ([19]; IFO12692, read-out: Minimum Inhibitory Concentration, horse serum 0%, inoculum 10^8): 3.1 µg/mL (≈ 9.47 µM)
MIC ([19]; IFO12692, read-out: Minimum Inhibitory Concentration, horse serum 10%, inoculum 10^6): 1.6 µg/mL (≈ 4.89 µM)
MIC ([19]; IFO12692, read-out: Minimum Inhibitory Concentration, horse serum 10%, inoculum 10^8): 1.6 µg/mL (≈ 4.89 µM)
MIC ([19]; IFO12692, read-out: Minimum Inhibitory Concentration, horse serum 20%, inoculum 10^6): 0.8 µg/mL (≈ 2.44 µM)
MIC ([19]; IFO12692, read-out: Minimum Inhibitory Concentration, horse serum 20%, inoculum 10^8): 0.8 µg/mL (≈ 2.44 µM)
MIC ([19]; IFO12692, read-out: Minimum Inhibitory Concentration, horse serum 40%, inoculum 10^6): 0.4 µg/mL (≈ 1.22 µM)
MIC ([19]; IFO12692, read-out: Minimum Inhibitory Concentration, horse serum 40%, inoculum 10^8): 0.8 µg/mL (≈ 2.44 µM)
MIC [20, 24]: 3.1 µg/mL (≈ 9.47 µM)
MIC [20, 25]: 6.3 µg/mL (≈ 19.2 µM)
MIC [20, 26]: 3.1 µg/mL (≈ 9.47 µM)
MIC [20, 27]: 3.1 µg/mL (≈ 9.47 µM)
MIC [20, 28]: 0.8 µg/mL (≈ 2.44 µM)
MIC [20, 29]: 1.6 µg/mL (≈ 4.89 µM)
MIC [20, 30]: 0.8 µg/mL (≈ 2.44 µM)
MIC [20, 31]: 0.8 µg/mL (≈ 2.44 µM)
MIC [21, 24]: 6.3 µg/mL (≈ 19.2 µM)
MIC [21, 25]: 12.5 µg/mL (≈ 38.2 µM)
MIC [21, 26]: 6.3 µg/mL (≈ 19.2 µM)
MIC [21, 27]: 6.3 µg/mL (≈ 19.2 µM)
MIC [21, 28]: 6.3 µg/mL (≈ 19.2 µM)
MIC [21, 29]: 6.3 µg/mL (≈ 19.2 µM)
MIC [21, 30]: 3.1 µg/mL (≈ 9.47 µM)
MIC [21, 31]: 6.3 µg/mL (≈ 19.2 µM)
